From patent US20240041042A1, “1-(PYRIDYL)-5-AZINYLPYRAZOLE DERIVATIVES, AND THEIR USE FOR CONTROL OF UNDESIRED PLANT GROWTH” (Bayer Aktiengesellschaft, priority 2020, published 2024)
Like-named read-outs stand apart in the source and are kept apart here. Values belong to the compound of their own block, whether it stands above or below them.

Columns and labels:
Format in all cases: in vivo
[1] = system: Alopecurus myosuroides (ALOMY); experiment: Pre-emergence herbicidal action against ALOMY; settings: scored visually after about 3 weeks, 100% = plants have died
How it was run: (§1)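 Read-out is visual percent damage relative to untreated pots, with 100% meaning dead plants and 0% meaning no difference, assessed roughly three weeks after treatment. Compounds were applied pre-emergence to the covering soil at up to 320 g/ha.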

[2] = system: Amaranthus retroflexus (AMARE); experiment: Pre-emergence herbicidal action against AMARE; settings: 320 g/ha, visual scoring after about 3 weeks vs untreated controls
How it was run: as §1

Lolium rigidum (LOLRI) [3] = experiment: Pre-emergence herbicidal action against LOLRI; settings: dosage 320 g/ha
How it was run: as §1

Setaria viridis (SETVI) [4] = experiment: Pre-emergence herbicidal action against SETVI
How it was run: as §1

Viola tricolor (VIOTR) [5] = experiment: Pre-emergence herbicidal action against VIOTR; settings: 320 g/ha, Viola tricolor
How it was run: as §1

Brassica napus (BRSNW) = settings: crop plant compatibility, in comparison to untreated controls
How it was run: (§2)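 Scoring: visual, % of untreated control, about 3 weeks after a pre-emergence application to the soil surface. Application used WP or EC formulations diluted in water with 0.5% additive at 600 l/ha; dosage levels are marked by suffixes a, b and c.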

Glycine max (GLXMA) = settings: crop plant compatibility; for Pre-emergence action against GLXMA in %: 80 g/ha, in comparison to untreated controls
How it was run: as §2

Oryza sativa (ORYSA) [6] = settings: crop plant compatibility; for Pre-emergence action against ORYSA in %: in comparison to untreated controls
How it was run: as §2

[7] = system: Triticum aestivum (TRZAS); settings: crop plant compatibility; for Pre-emergence action against TRZAS in %: 80 g/ha, in comparison to untreated controls
How it was run: as §2

Zea mays (ZEAMX) [8] = settings: crop plant compatibility; for Pre-emergence action against ZEAMX in %: in comparison to untreated controls
How it was run: as §2

[9] = system: Alopecurus myosuroides (ALOMY); experiment: Post-emergence herbicidal action against ALOMY; settings: visual rating about 3 weeks after treatment vs untreated controls (100% = plants have died, 0% = like control plants)
How it was run: (§3)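 Rates were 320 g/ha or below, applied as aqueous WP/EC spray with 0.5% additive (600 l/ha) onto one-leaf-stage plants. About 3 weeks later in the greenhouse, damage was scored visually against untreated plants on a 0–100% scale, where 100% means plants died.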

[10] = system: Amaranthus retroflexus (AMARE); experiment: Post-emergence herbicidal action against AMARE
How it was run: as §3

Oryza sativa (ORYSA) [11] = settings: crop plant compatibility
How it was run: (§4)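 Effects were read visually as % versus untreated controls (0% = no effect, 100% = death) about 3 weeks post-treatment. Application was a post-emergence spray at the one-leaf stage of WP/EC formulations with 0.5% additive at 600 l/ha. Different dosages are denoted a, b and c.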

[12] = system: Triticum aestivum (TRZAS); settings: crop plant compatibility, effect vs untreated controls
How it was run: as §4

Avena fatua (AVEFA) [13] = experiment: Pre-emergence herbicidal action against AVEFA; settings: 320 g/ha, visual scoring after about 3 weeks vs untreated controls
How it was run: as §1

[14] = system: Digitaria sanguinalis (DIGSA); experiment: Pre-emergence herbicidal action against DIGSA
How it was run: as §1

[15] = system: Echinochloa crus-galli (ECHCG); experiment: Pre-emergence herbicidal action against ECHCG; settings: dosage 320 g/ha
How it was run: as §1

[16] = system: Matricaria inodora (MATIN); experiment: Pre-emergence herbicidal action against MATIN; settings: dosage 320 g/ha
How it was run: as §1

[17] = system: Polygonum convolvulus (POLCO); experiment: Pre-emergence herbicidal action against POLCO
How it was run: as §1

[18] = system: Verconica persica (VERPE); experiment: Pre-emergence herbicidal action against VERPE; settings: dosage 320 g/ha
How it was run: as §1

Avena fatua (AVEFA) [19] = experiment: Post-emergence herbicidal action against AVEFA; settings: visual rating about 3 weeks after treatment
How it was run: as §3

[20] = system: Digitaria sanguinalis (DIGSA); experiment: Post-emergence herbicidal action against DIGSA; settings: visual rating about 3 weeks after treatment
How it was run: as §3

[21] = system: Echinochloa crus-galli (ECHCG); experiment: Post-emergence herbicidal action against ECHCG; settings: dosage 320 g/ha
How it was run: as §3

Lolium rigidum (LOLRI) [22] = experiment: Post-emergence herbicidal action against LOLRI; settings: dosage 320 g/ha
How it was run: as §3

[23] = system: Pharbitis purpurea (PHBPU); experiment: Post-emergence herbicidal action against PHBPU; settings: dosage 320 g/ha
How it was run: as §3

Setaria viridis (SETVI) [24] = experiment: Post-emergence herbicidal action against SETVI
How it was run: as §3

[25] = system: Verconica persica (VERPE); experiment: Post-emergence herbicidal action against VERPE; settings: 320 g/ha, VERPE
How it was run: as §3

Viola tricolor (VIOTR) [26] = experiment: Post-emergence herbicidal action against VIOTR; settings: 320 g/ha
How it was run: as §3

Zea mays (ZEAMX) [27] = settings: for Post-emergence action against ZEAMX in %: crop plant compatibility, effect vs untreated controls
How it was run: as §4

[28] = 20 g/ha, effect vs untreated controls
[29] = 80 g/ha, effect in comparison to untreated controls

Pre-emergence action against BRSNW in % (Brassica napus (BRSNW); 80 g/ha): 10%
Pre-emergence action against GLXMA in % (Glycine max (GLXMA)): 0%
Pre-emergence action against ORYSA in % (Oryza sativa (ORYSA) [6]; 80 g/ha): 0%
Pre-emergence action against ORYSA in % (Oryza sativa (ORYSA) [6]; 320 g/ha): 20%
Pre-emergence action against TRZAS in % [7]: 10%
Pre-emergence action against ZEAMX in % (Zea mays (ZEAMX) [8]; 80 g/ha): 0%
Pre-emergence action against ZEAMX in % (Zea mays (ZEAMX) [8]; 320 g/ha): 0%
Post-emergence action against ORYSA in % (Oryza sativa (ORYSA) [11]; [28]): 10%
Post-emergence action against ORYSA in % (Oryza sativa (ORYSA) [11]; [29]): 20%
Post-emergence action against TRZAS in % ([12]; 20 g/ha): 10%
Compound: O=C(O)COc1nn(-c2ccccn2)c(-c2cncc(F)c2)c1C1CC1 [Example I-72]
Pre-emergence action against ALOMY ([1]; 320 g/ha): 100%
Pre-emergence action against AMARE in % [2]: 90%
Pre-emergence action against LOLRI in % (Lolium rigidum (LOLRI) [3]): 100%
Pre-emergence action against SETVI in % (Setaria viridis (SETVI) [4]; dosage 320 g/ha): 90%
Pre-emergence action against VIOTR in % (Viola tricolor (VIOTR) [5]): 90%
Post-emergence action against ALOMY in % ([9]; 80 g/ha): 90%
Post-emergence action against AMARE in % ([10]; 80 g/ha, visual rating about 3 weeks after treatment vs untreated controls (100% = plants have died, 0% = like control plants)): 80%

Pre-emergence action against BRSNW in % (Brassica napus (BRSNW); 20 g/ha): 10%
Pre-emergence action against BRSNW in % (Brassica napus (BRSNW); 80 g/ha): 20%
Pre-emergence action against GLXMA (Glycine max (GLXMA); [28]): 10%
Pre-emergence action against ORYSA (Oryza sativa (ORYSA) [6]; [28]): 0%
Pre-emergence action against ORYSA in % (Oryza sativa (ORYSA) [6]; 80 g/ha): 20%
Pre-emergence action against TRZAS [7, 28]: 0%
Pre-emergence action against ZEAMX (Zea mays (ZEAMX) [8]; [28]): 10%
Pre-emergence action against ZEAMX in % (Zea mays (ZEAMX) [8]; 80 g/ha): 10%
Post-emergence action against ORYSA in % (Oryza sativa (ORYSA) [11]; [28]): 0%
Post-emergence action against ORYSA in % (Oryza sativa (ORYSA) [11]; [29]): 0%
Post-emergence action against ORYSA in % (Oryza sativa (ORYSA) [11]; 320 g/ha, effect in comparison to untreated controls): 10%
Post-emergence action against ZEAMX in % (crop plant compatibility) (Zea mays (ZEAMX) [27]; 20 g/ha, ZEAMX, effect in comparison to untreated controls): 10%
Compound: COC(=O)[C@@H](C)Oc1nn(-c2ccc(F)cn2)c(-c2ccc(F)nc2)c1Br [Example I-11]
Pre-emergence action against ALOMY ([1]; 80 g/ha): 90%
Pre-emergence action against ALOMY ([1]; 320 g/ha): 100%
Pre-emergence action against AMARE in % [2]: 100%
Pre-emergence action against AVEFA in % (Avena fatua (AVEFA) [13]): 90%
Pre-emergence action against DIGSA in % ([14]; 80 g/ha, visual scoring after about 3 weeks vs untreated controls): 100%
Pre-emergence action against DIGSA in % ([14]; dosage 320 g/ha): 100%
Pre-emergence action against ECHCG in % [15]: 80%
Pre-emergence action against LOLRI in % (Lolium rigidum (LOLRI) [3]): 100%
Pre-emergence action against MATIN in % [16]: 90%
Pre-emergence action against POLCO in % ([17]; dosage 80 g/ha): 90%
Pre-emergence action against POLCO in % ([17]; dosage 320 g/ha): 90%
Pre-emergence action against SETVI in % (Setaria viridis (SETVI) [4]; dosage 80 g/ha): 90%
Pre-emergence action against SETVI in % (Setaria viridis (SETVI) [4]; dosage 320 g/ha): 100%
Pre-emergence action against VERPE in % [18]: 90%
Pre-emergence action against VIOTR in % (Viola tricolor (VIOTR) [5]): 100%
Post-emergence action against ALOMY in % ([9]; 80 g/ha): 90%
Post-emergence action against ALOMY in % ([9]; 320 g/ha): 90%
Post-emergence action against AVEFA in % (Avena fatua (AVEFA) [19]; 80 g/ha): 80%
Post-emergence action against AVEFA in % (Avena fatua (AVEFA) [19]; 320 g/ha): 90%
Post-emergence action against DIGSA in % ([20]; 80 g/ha): 90%
Post-emergence action against DIGSA in % ([20]; 320 g/ha): 90%
Post-emergence action against ECHCG in % [21]: 80%
Post-emergence action against LOLRI in % (Lolium rigidum (LOLRI) [22]): 80%
Post-emergence action against PHBPU in % [23]: 90%
Post-emergence action against SETVI in % (Setaria viridis (SETVI) [24]; dosage 80 g/ha): 80%
Post-emergence action against SETVI in % (Setaria viridis (SETVI) [24]; dosage 320 g/ha): 90%
Post-emergence action against VERPE in % [25]: 80%
Post-emergence action against VIOTR in % (Viola tricolor (VIOTR) [26]): 80%

Pre-emergence action against BRSNW in % (Brassica napus (BRSNW); 80 g/ha): 20%
Pre-emergence action against GLXMA in % (Glycine max (GLXMA)): 0%
Pre-emergence action against ORYSA in % (Oryza sativa (ORYSA) [6]; 80 g/ha): 10%
Pre-emergence action against ORYSA in % (Oryza sativa (ORYSA) [6]; 320 g/ha): 20%
Pre-emergence action against TRZAS in % [7]: 10%
Pre-emergence action against ZEAMX in % (Zea mays (ZEAMX) [8]; 80 g/ha): 0%
Pre-emergence action against ZEAMX in % (Zea mays (ZEAMX) [8]; 320 g/ha): 10%
Post-emergence action against ORYSA in % (Oryza sativa (ORYSA) [11]; [29]): 20%
Post-emergence action against TRZAS in % ([12]; 80 g/ha): 10%
Post-emergence action against ZEAMX in % (Zea mays (ZEAMX) [27]; 80 g/ha): 0%
Post-emergence action against ZEAMX in % (Zea mays (ZEAMX) [27]; 320 g/ha): 10%
Compound: COC(=O)C=CC(C)NC(=O)COc1nn(-c2ccccn2)c(-c2ccc(F)nc2)c1Br (centres unmarked) [Example I-345]
Pre-emergence action against DIGSA in % ([14]; dosage 320 g/ha): 90%
Post-emergence action against AMARE in % ([10]; 320 g/ha, visual rating about 3 weeks after treatment): 80%
Post-emergence action against VERPE in % [25]: 80%
